Test results: the supplement of paper PMC5908809

Key:
Assay in all cases: relative IC50 (inflection point of fitted viability curve, relative to fitted max inhibition); higher = less sensitive
Details in all cases: 72 h
NK-92 (IL-2 2.5 ng/mL) = test system: NK-92 (IL-2 2.5 ng/mL)
Method: (§1)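 Drug sensitivity and resistance testing: 5 concentrations over a 10,000-fold range, 72 h at 37 °C, viability by CellTiter-Glo normalised to DMSO and benzethonium chloride controls. IC50 is the inflection point of a logistic fit (min fixed at 0, max fitted), so it is relative to the fitted maximal inhibition. Kept only where fitted max inhibition is at least 50%.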

NKL (IL-2 2.5 ng/mL) = test system: NKL (IL-2 2.5 ng/mL)
Method: as §1

NK-YS (IL-2 2.5 ng/mL) = test system: NK-YS (IL-2 2.5 ng/mL)
Method: as §1

[1] = test system: normal primary NK cells, pool 3 (3 donors) (IL-2 2.5 ng/mL)
Method: as §1

YT (IL-2 2.5 ng/mL) = test system: YT (IL-2 2.5 ng/mL)
Method: as §1

KAI3 (IL-2 2.5 ng/mL) = test system: KAI3 (IL-2 2.5 ng/mL)
Method: as §1

[2] = test system: normal primary NK cells, pool 1 (3 donors), resting (IL-2 0 ng/mL)
Method: as §1

DERL-7 (IL-2 2.5 ng/mL) = test system: DERL-7 (IL-2 2.5 ng/mL)
Method: as §1

[3] = test system: normal primary NK cells, pool 1 (3 donors) (IL-2 2.5 ng/mL)
Method: as §1

SNK-6 (IL-2 2.5 ng/mL) = test system: SNK-6 (IL-2 2.5 ng/mL)
Method: as §1

IMC-1 (IL-2 20 ng/mL) = test system: IMC-1 (IL-2 20 ng/mL)
Method: as §1

[4] = test system: normal primary NK cells, pool 2 (3 donors) (IL-2 2.5 ng/mL)
Method: as §1

KHYG-1 (IL-2 2.5 ng/mL) = test system: KHYG-1 (IL-2 2.5 ng/mL)
Method: as §1

| Structure (SMILES) | relative IC50 (NK-92 (IL-2 2.5 ng/mL)) [µM] | relative IC50 (NKL (IL-2 2.5 ng/mL)) [µM] | relative IC50 (NK-YS (IL-2 2.5 ng/mL)) [µM] | relative IC50 [1] [µM] | relative IC50 (YT (IL-2 2.5 ng/mL)) [µM] | relative IC50 (KAI3 (IL-2 2.5 ng/mL)) [µM] | relative IC50 [2] [µM] | relative IC50 (DERL-7 (IL-2 2.5 ng/mL)) [µM] | relative IC50 [3] [µM] | relative IC50 (SNK-6 (IL-2 2.5 ng/mL)) [µM] | relative IC50 (IMC-1 (IL-2 20 ng/mL)) [µM] | relative IC50 [4] [µM] | relative IC50 (KHYG-1 (IL-2 2.5 ng/mL)) [µM] |
| --- | --- | --- | --- | --- | --- | --- | --- | --- | --- | --- | --- | --- | --- |
| CN(C)CCN1C(=O)c2cccc3cc(N)cc(c23)C1=O [Amonafide] | 1.4 | 1.24 | 1.38 | 2.41 | 2.14 | 1.28 | 2.25 | 1.76 | 3.5 | 1.7 | 1.94 | 2.65 | 1.97 |
| Nc1nc(Cl)nc2c1ncn2[C@@H]1O[C@H](CO)[C@@H](O)[C@@H]1F [Clofarabine] | 0.0312 | 0.0356 | 0.067 | 0.028 | 0.225 | 0.0496 | 0.00776 | 0.0217 | 0.0144 | 0.0428 | 0.0541 | 0.0223 | 0.035 |
| COC[C@H](NC(=O)c1cnc(C)s1)C(=O)N[C@@H](COC)C(=O)N[C@@H](Cc1ccccc1)C(=O)[C@@]1(C)CO1 [Oprozomib] | 0.0324 | 0.0525 | 0.0277 | 0.0248 | 0.0491 | 0.0241 | 0.0192 | 0.0105 | 0.0347 | 0.0502 | 0.0768 | 0.0179 | 0.048 |
| CCc1cnn2c(NCc3ccc[n+]([O-])c3)cc(N3CCCC[C@H]3CCO)nc12 [Dinaciclib] | 0.0074 | 0.00424 | 0.00468 | 0.00624 | 0.0036 | 0.00892 | 0.0164 | 0.0137 | 0.0109 | 0.0044 | 0.011 | 0.00372 | 0.0113 |
| CC1(C)CCC(c2ccc(Cl)cc2)=C(CN2CCN(c3ccc(C(=O)NS(=O)(=O)c4ccc(N[C@H](CCN5CCOCC5)CSc5ccccc5)c(S(=O)(=O)C(F)(F)F)c4)cc3)CC2)C1 [Navitoclax] | 0.208 | 0.0357 | 0.0736 | 0.203 | 0.0267 | 0.00312 | 0.0104 | 0.109 | 0.0853 | 0.00444 | 0.727 | 0.083 | 0.0677 |
| CCCCCCCCc1ccc(CCC(N)(CO)CO)cc1 [Fingolimod] | 3.26 | 1.4 | 2.28 | 3.41 | 2.45 | 1.67 | 3.33 | 2.03 | 2.45 | 2.06 | 2.31 | 1.93 | 2.29 |
| CO[C@H](C(=O)[C@@H](O)[C@@H](C)O)[C@@H]1Cc2cc3cc(O[C@H]4C[C@@H](O[C@@H]5C[C@@H](O)[C@H](O)[C@@H](C)O5)[C@H](O)[C@@H](C)O4)c(C)c(O)c3c(O)c2C(=O)[C@H]1O[C@H]1C[C@@H](O[C@@H]2C[C@@H](O)[C@@H](O[C@@H]3C[C@](C)(O)[C@H](O)[C@@H](C)O3)[C@@H](C)O2)[C@H](O)[C@@H](C)O1 [Plicamycin] | 0.22 | 0.0379 | 0.0277 | 0.785 | 0.0316 | 0.0841 | 0.135 | 0.0482 | 0.136 | 0.0117 | 0.73 | 0.692 | 0.0447 |
| CCCc1cc(C)[nH]c(=O)c1CNC(=O)c1cc(-c2ccnc(N3CCN(C)CC3)c2)cc2c1cnn2C(C)C [GSK343] | 3.19 | 3.35 | 2.78 | 3.69 | 2.89 | 2.48 | 2.24 | 2.42 | 2.47 | 3.52 | 3.63 | > 10 | 2.88 |
